In ChEMBL document CHEMBL1201862, “PubChem BioAssay data set” (2004):
The source made the active and inactive calls.

Tests used:
[1] = Fluorescence-based cell-based high throughput dose response assay for inhibitors of the interaction of nucleotide-binding oligomerization domain containing 2 (NOD2) and the receptor-interacting serine-threonine kinase 2 (RIPK2).; format: functional; settings: Homo sapiens
[2] = system: HEK293; test: cells; settings: Homo sapiens
[3] = system: HEK293; test: cells; settings: Homo sapiens; remark: listed apart in the source
[4] = molecular target: T1, Apoptotic protease-activating factor 1 (Homo sapiens, UniProt O14727); test: SAR analysis of small molecule Activators of Apaf-1 in a Fluorescent assay.; format: functional; settings: read-out: EC50_Mean
T1 sequence (O14727 whole entry): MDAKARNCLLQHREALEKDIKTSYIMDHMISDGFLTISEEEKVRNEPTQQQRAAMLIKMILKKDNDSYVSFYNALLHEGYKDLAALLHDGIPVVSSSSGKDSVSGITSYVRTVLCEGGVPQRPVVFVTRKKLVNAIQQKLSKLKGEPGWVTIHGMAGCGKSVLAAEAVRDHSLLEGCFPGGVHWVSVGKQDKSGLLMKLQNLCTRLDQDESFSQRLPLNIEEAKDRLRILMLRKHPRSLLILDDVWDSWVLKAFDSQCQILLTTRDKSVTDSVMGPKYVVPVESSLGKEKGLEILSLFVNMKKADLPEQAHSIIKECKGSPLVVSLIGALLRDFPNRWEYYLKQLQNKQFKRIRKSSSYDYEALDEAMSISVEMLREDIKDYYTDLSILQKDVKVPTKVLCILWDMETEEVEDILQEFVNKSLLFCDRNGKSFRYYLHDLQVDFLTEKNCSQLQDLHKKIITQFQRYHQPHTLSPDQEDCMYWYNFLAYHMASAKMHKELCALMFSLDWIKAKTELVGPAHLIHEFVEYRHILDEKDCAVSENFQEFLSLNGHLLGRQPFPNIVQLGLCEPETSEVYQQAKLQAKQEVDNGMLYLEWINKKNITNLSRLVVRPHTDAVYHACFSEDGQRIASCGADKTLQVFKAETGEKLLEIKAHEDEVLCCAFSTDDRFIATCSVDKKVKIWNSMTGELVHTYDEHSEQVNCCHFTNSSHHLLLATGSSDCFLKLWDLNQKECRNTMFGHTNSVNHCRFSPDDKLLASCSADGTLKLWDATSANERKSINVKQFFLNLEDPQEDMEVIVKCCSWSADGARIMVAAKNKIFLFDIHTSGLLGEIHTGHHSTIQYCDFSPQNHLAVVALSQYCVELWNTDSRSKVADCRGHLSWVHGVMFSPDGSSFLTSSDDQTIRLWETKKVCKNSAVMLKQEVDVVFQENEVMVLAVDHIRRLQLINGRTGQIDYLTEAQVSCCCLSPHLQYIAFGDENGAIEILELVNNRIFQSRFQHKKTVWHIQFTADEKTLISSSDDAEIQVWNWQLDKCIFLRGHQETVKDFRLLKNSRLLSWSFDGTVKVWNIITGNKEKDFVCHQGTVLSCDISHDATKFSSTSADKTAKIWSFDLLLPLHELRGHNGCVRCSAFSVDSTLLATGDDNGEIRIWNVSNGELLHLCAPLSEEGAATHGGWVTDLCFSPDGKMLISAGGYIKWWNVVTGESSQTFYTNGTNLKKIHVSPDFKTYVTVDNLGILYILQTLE

[5] = molecular target: T1, Apoptotic protease-activating factor 1; test: SAR analysis of small molecule inhibitors of Apaf-1 in a Fluorescent assay.; format: functional; settings: read-out: IC50_Mean
[6] = molecular target: T2, Probable nicotinate-nucleotide adenylyltransferase (Staphylococcus aureus (strain N315), UniProt P65502); format: functional, Staphylococcus aureus subsp. aureus N315;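 as to IC50 Mean: confirmatory dose-response retesting of NadD inhibitor hits first found in an ultra-high-throughput screen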
T2 sequence (P65502 whole entry): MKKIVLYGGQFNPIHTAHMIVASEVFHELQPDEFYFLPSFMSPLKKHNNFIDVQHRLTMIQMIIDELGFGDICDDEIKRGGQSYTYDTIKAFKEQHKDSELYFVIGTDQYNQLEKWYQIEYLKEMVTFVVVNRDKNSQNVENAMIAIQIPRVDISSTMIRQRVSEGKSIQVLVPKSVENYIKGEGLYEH

[7] = system: Vero; test: cells; format: functional; settings: Chlorocebus sabaeus
[8] = molecular target: T2, Probable nicotinate-nucleotide adenylyltransferase; format: functional, Staphylococcus aureus subsp. aureus N315; settings: read-out: IC50_Mean
[9] = molecular target: Beta Lactamase (Pseudomonas aeruginosa, UniProt Q932Y6); test: beta-lactamase reporter inhibitor potency, dose response, artefact control for TLR9-MyD88 binding inhibitor project, BLA reporter cells, FRET fluorescence (AID 588341); format: cell-based;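 also: cell based assay in CHO-K1 cells stably expressing beta-lactamase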
Sequence of Beta Lactamase (Q932Y6 whole entry, the tested form may be a part): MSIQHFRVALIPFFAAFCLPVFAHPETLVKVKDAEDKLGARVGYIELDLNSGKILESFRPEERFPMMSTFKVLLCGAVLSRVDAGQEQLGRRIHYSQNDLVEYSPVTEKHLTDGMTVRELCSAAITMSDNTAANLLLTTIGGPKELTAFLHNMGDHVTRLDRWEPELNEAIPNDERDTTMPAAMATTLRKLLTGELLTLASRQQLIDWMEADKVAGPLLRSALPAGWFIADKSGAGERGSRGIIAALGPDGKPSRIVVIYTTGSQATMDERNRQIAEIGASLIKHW

[10] = system: CHO; test: cytotoxicity in TLR9-MyD88 CHO cells, dose response, cytotoxicity control for TLR9-MyD88 binding inhibitor project, cell-based, luminescence (AID 588339); format: functional, hamster; settings: Cricetulus griseus;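 also: CHO cells stably coexpressing TLR9 and MyD88 fusions from primary screen; compound exposure lasted 48 hours before viability readout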
[11] = molecular target: T3, Zinc finger protein mex-5 (Caenorhabditis elegans, UniProt Q9XUB2); test: MEX-5/TCR-2 RNA interaction inhibitors, dose response, biochemical, C. elegans, fluorescence polarization (AID 1960)
T3 sequence (Q9XUB2 whole entry): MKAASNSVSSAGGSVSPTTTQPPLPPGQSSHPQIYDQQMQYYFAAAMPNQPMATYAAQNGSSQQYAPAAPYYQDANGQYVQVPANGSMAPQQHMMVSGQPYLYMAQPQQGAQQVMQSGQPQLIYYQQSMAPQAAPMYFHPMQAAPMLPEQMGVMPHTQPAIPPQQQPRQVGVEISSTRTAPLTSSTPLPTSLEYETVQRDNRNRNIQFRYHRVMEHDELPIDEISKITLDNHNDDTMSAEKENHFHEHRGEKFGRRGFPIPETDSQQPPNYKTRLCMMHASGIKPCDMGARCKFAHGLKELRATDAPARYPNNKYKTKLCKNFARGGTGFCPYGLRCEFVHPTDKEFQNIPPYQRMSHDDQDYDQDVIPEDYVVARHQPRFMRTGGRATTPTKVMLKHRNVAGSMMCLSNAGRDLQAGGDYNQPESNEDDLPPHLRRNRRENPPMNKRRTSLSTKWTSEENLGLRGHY

[12] = molecular target: T4, Corticotropin-releasing factor receptor 2/Corticotropin-releasing factor-binding protein (Homo sapiens, UniProt P24387+Q13324); test: activators of CRF receptor 2 with binding protein – uHTS hits, confirmation (AID 602473); format: functional; settings: read-out: EC50_Mean
T4 sequence (Q13324 whole entry): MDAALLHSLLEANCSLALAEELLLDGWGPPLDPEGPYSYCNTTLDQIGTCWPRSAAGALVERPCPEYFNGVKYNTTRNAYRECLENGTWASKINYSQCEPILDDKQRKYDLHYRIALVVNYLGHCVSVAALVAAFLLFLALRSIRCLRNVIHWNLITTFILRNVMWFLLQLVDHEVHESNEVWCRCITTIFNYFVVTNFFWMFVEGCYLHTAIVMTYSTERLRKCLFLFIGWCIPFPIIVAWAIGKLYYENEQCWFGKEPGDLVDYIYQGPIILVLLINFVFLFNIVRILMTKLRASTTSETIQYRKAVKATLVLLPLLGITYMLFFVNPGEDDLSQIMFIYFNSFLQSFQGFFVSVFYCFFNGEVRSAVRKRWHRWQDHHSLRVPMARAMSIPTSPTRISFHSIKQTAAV
T4 sequence (P24387 whole entry): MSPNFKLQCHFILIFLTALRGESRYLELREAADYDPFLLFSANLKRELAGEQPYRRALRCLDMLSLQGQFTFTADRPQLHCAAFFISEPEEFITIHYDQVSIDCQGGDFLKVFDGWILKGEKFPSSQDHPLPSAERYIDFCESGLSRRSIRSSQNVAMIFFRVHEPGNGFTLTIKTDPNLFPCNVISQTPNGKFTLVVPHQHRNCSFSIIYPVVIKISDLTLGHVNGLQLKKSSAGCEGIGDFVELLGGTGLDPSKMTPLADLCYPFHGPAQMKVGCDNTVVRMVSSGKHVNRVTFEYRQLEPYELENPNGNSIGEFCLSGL

[13] = molecular target: T5, RNA-binding protein pos-1 (Caenorhabditis elegans, UniProt G5EF15); test: inhibitors of POS-1/mex-3 RNA binding, dose response, biochemical, fluorescence polarization (AID 1964);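 also: purified POS-1 fused to maltose binding protein made in E. coli; potency of compounds blocking POS-1 binding to fluorescent RNA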
T5 sequence (G5EF15 whole entry): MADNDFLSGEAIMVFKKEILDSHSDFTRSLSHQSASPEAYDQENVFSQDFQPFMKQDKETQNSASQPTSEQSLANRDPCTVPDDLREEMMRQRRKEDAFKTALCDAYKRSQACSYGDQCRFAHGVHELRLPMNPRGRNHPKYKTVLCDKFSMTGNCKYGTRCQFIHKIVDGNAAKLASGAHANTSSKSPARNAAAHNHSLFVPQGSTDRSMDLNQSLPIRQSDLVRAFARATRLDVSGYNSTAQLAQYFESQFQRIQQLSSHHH

[14] = molecular target: Voltage-gated inwardly rectifying potassium channel KCNH2 (Homo sapiens, UniProt Q12809); settings: Potency;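 also: confirmatory quantitative high-throughput screen measuring inhibition of hERG channel activity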
Sequence of Voltage-gated inwardly rectifying potassium channel KCNH2 (Q12809 whole entry): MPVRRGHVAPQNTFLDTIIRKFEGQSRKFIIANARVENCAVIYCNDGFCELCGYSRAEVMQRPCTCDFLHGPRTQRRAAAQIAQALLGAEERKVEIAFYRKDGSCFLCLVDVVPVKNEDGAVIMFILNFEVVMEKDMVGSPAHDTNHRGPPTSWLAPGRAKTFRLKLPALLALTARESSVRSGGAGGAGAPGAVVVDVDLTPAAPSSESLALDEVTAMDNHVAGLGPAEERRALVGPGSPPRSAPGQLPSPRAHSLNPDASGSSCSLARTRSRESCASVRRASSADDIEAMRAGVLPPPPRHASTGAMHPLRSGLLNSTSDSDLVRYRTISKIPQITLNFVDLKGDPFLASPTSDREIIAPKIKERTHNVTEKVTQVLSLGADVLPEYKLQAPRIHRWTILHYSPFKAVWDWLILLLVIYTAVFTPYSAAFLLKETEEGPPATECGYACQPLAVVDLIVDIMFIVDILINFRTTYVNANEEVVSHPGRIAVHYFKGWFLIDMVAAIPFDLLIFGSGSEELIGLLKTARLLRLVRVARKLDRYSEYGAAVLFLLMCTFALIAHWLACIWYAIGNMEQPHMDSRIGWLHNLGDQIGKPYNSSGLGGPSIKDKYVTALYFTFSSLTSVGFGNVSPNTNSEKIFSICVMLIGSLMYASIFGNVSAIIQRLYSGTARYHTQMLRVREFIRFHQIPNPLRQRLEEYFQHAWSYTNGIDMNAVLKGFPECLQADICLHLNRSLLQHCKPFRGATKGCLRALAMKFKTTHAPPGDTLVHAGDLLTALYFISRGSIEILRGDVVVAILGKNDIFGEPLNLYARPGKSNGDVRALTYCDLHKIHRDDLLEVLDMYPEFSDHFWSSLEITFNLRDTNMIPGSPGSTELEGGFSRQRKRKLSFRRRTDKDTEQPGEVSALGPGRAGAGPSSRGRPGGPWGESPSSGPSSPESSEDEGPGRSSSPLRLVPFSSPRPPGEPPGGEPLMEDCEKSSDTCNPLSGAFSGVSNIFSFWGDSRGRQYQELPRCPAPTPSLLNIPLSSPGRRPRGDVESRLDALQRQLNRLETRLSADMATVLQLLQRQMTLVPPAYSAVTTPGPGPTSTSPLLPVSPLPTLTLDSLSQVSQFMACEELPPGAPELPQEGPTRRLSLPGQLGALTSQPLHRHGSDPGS

[15] = molecular target: T6, Endoribonuclease toxin MazF (Escherichia coli K-12, UniProt P0AE70); test: MazF toxin RNase activators, dose response, biochemical, fluorescence, single-stranded RNA substrate, uHTS hits (AID 588481); format: functional
T6 sequence (P0AE70 whole entry): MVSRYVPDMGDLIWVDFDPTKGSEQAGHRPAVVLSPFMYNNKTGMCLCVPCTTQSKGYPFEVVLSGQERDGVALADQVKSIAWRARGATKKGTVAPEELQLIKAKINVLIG

[16] = molecular target: T6, Endoribonuclease toxin MazF; test: fluorescent RNA oligo signal without MazF, dose response, counter-screen for MazEF activator project, biochemical, fluorescence, single-stranded RNase substrate (AID 588502); format: functional
[17] = Luminescence Cell-Based Dose Retest to Confirm Inhibitors of Cancer Stem Cells. [Related pubchem assays (depositor defined):AID2717, AID2721]; format: functional; settings: Homo sapiens
[18] = cytotoxicity in HMLE control line with eGFP shRNA, dose response, counter-screen for HMLE_sh_ECad selective toxicity project, cell-based, HMLE_sh_eGFP, luminescence (AID 463074); format: functional, Homo sapiens;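 also: HMLE human mammary epithelial cells expressing control shRNA against eGFP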

O=[N+]([O-])c1ccc(Sc2ccncn2)c([N+](=O)[O-])c1
IC50 [1]: 7.56 µM (active) | EC50 [2]: > 59.6 µM (inactive) | EC50 [3]: > 59.6 µM (inactive)

O=C(O)[C@@H]1COC(c2ccc(F)cc2F)=N1
EC50 [4]: > 100 µM (inactive)

O=C(Nc1ccc2nc(-c3ccc(Br)o3)[nH]c2c1)c1cccs1
IC50 [5]: > 100 µM (inactive)

COc1cc(/C=C/c2ccc3c(Br)cc(Br)c(O)c3n2)ccc1O
IC50 [6]: 10.1 µM (active) | CC50 [7]: 13.4 µM (active) | IC50 [8]: 44.9 µM (active) | IC50 [9]: 7.68 µM (active) | IC50 [10]: 7.79 µM (active)

COc1ccc(C(=O)c2sc3nc(C)cc(-c4cccs4)c3c2N)cc1
EC50 [11]: 11 µM (active) | EC50 [12]: 6.58 µM (active) | EC50 [13]: 16.9 µM (active) | IC50 [9]: 3.85 µM (active) | IC50 [10]: > 49.7 µM (inactive)

NC(Cc1ccc(N(CCCl)CCCl)cc1)C(=O)O (stereo not given) [SARCOLYSIN]
AC50 [14]: 35.5 µM (inconclusive)

Cc1cccc(N=Nc2c(O)[nH]c3ccc(F)cc23)c1
EC50 [15]: 38.7 µM (inactive) | EC50 [16]: > 99 µM (inactive)

COc1cccc(-c2sc3ccc(OC)cc3c2-c2ccc(OCCN3CCOCC3)cc2)c1
AC50 [17]: 2.09 µM (active) | AC50 [18]: 3.73 µM (inconclusive)
